In the METLIN SMRT retention time set (Domingo-Almenara et al. 2019) one finds RP-LC retention time data, which are given here for 32 compounds.

The data set is described as follows: gradient 5% acetonitrile 3 min, to 50% in 2 min, to 85% in 15 min, held 3 min, 100 µL/min. To be noted: column: Zorbax Extend-C18 2.1 x 50 mm; eluents: water / acetonitrile, 0.1% formic acid. The method in brief: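 Mixtures of ~100 pure standards were chromatographed on a Zorbax Extend-C18 column (2.1 × 50 mm, 1.8 μm) at 100 μL/min using water and acetonitrile, each with 0.1% formic acid. Detection used a quadrupole time-of-flight mass spectrometer in positive and negative ionization mode, and data collection spanned 3 months. Retention time was obtained from adduct peaks picked computationally and each checked manually.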
`Cc1cc(C)n2nc(SCC(=O)Nc3ccccc3[N+](=O)[O-])nc2n1`: the RP-LC retention time was found to be 686 s. Under `CCc1ccc(-c2cn3ccn(-c4ccc(F)cc4)c(=O)c3n2)cc1` stands 900 s; under `O=C(NCc1ccco1)c1ncoc1-c1ccccc1C(=O)N1CCCC1`, 711 s. Under `CN(C(=O)c1cc2c(=O)oc3ccccc3c2n1C)C1CCCCC1` stands 908 s. For `Cc1ccc(C2Cn3nnc(C(=O)N4CCC(C(=O)NC5CC5)CC4)c3CO2)cc1` (configuration not stated) the value was 733 s; for `Cc1ccc(-n2cc3c(N4CCCC(C(=O)NCc5ccc(C(F)(F)F)cc5)C4)ncnc3n2)cc1` (configuration not stated), 786 s; for `COc1ccc(CN2CCc3nc(N4CCOCC4)ncc3C2)c(OC)c1OC`, 597 s. For the compound `Clc1cccc(-c2nc(-c3ccc4c(c3)ncn4CCN3CCOCC3)no2)c1`, the RP-LC retention time worked out at 676 s. Under `CCc1ccc(NC(=O)NCC(c2cccnc2)c2c[nH]c3ccccc23)cc1` (configuration not stated) stands 710 s; under `COc1cc(C(=O)N2CCCC(C)(C(=O)NCc3ccc(C)cc3)C2)cc(OC)c1OC` (configuration not stated), 820 s; under `O=C(Cc1csc(NC(=O)NC2CCCCC2)n1)NCCc1ccc(Cl)cc1`, 805 s. Under `Cc1nc(-c2noc(-c3cccc(F)c3)n2)cn1CC(=O)Nc1cccc(F)c1` stands 889 s; under `Cc1ccccc1OCC(=O)N1CC(CN(C)C)C2(CCOCC2)C1` (configuration not stated), 590 s. Consider `CCN1C(=O)COc2ccc(-c3nc(NC(=O)CC(C)C)sc3C)cc21`, for which the RP-LC retention time is 962 s. Under `CCc1cccc(C)c1Nc1c(-c2ccc(C)cc2)nc2cnccn12` stands 996 s. For `CSc1nc2cc(Oc3cccc(Cl)c3Cl)c(Cl)cc2[nH]1` the value was 1080 s; for `Cc1ccc(CNC(=O)N2CCC(N3CCN(Cc4cccc(F)c4)C(=O)C3=O)CC2)cc1`, 757 s; for `COc1ccc(-c2nnc(-c3cc(S(=O)(=O)NC(C)C)ccc3Cl)o2)cc1`, 967 s. Under `CC(=O)Nc1ccc(-n2cnc(C(=O)N3CCN(c4cccc(Cl)c4)CC3)c2)nc1` stands 749 s; under `O=C(Nc1ccc(N2CCOCC2)cc1)C1CCc2sc(C(=O)N3CCCC3)cc2C1` (configuration not stated), 669 s.

`CCOc1cc(C(=O)N(CC)c2nc(-c3ccccc3)cs2)cc(OCC)c1OCC` yielded an RP-LC retention time of 663 s. Compound `O=S(=O)(c1cc(-c2nnc(C3CCC3)o2)co1)N1CCN(c2ccccc2)CC1` came in with an RP-LC retention time of 1050 s. For `COc1cc(NC(=O)Cn2ccnc2-c2ccnc(N3CCOCC3)c2)cc(OC)c1` the value was 625 s. `Cc1noc(C)c1C(=O)N1CCCC1Cc1noc(-c2cnccn2)n1` (configuration not stated): the RP-LC retention time is 661 s. For `O=C(CSc1ccc(-n2cccn2)nn1)NCc1ccco1` the value was 653 s; for `Cc1nc(N2CCN(Cc3ccc4c(c3)OCO4)CC2)nc2c1C(=O)CC(c1cccs1)C2` (configuration not stated), 753 s; for `CCC(C)N(CC(=O)N(Cc1ccco1)CC1CCCO1)C(=O)c1ccc(F)cc1` (configuration not stated), 864 s. For `COc1ccc(-c2nc(Cn3cnc4nc5c(cc4c3=O)CCCC5)c(C)o2)c(OC)c1` the value was 845 s; for `Cc1nc2c3ccccc3nc(NNC(=O)CCC(=O)N3CCN(c4ccccn4)CC3)n2n1`, 550 s. For `Cc1ccccc1NC(=O)c1cc(C)n2nc(-c3ccsc3)cc2n1`, the RP-LC retention time was 1240 s. As to `CCN(CC)C(=O)c1ccc(-c2nnc3ccc(NC(=O)C4CCC4)cn23)cc1`, the RP-LC retention time came to 745 s. Compound `CCCOc1nc2ccccc2nc1N1CCCC(C(=O)Nc2cccc(C)c2C)C1` (configuration not stated) registered an RP-LC retention time of 1390 s.
